Laboratory results published in publication PMC12914960, “Repurposing a detrimental antibody epitope as targeted therapeutics for sepsis and rheumatoid arthritis” (Military Medical Research, 2026).
Where a SMILES comes first, the peptide text is derived from it.

Tested on: CLP-induced sepsis in BALB/c mice
Assay: Septic survival after cecal ligation and puncture (CLP)
Format: in vivo, mouse
Conditions: i.p.
Protocol: Experimental sepsis was induced in BALB/c mice via CLP as previously described. […] The animals were randomly assigned to the control vehicle (n = 10 or n = 20) or experimental groups (n = 10 or n = 20). P2 (5.0 mg/kg), P2-1 (0.1 mg/kg or 1.0 mg/kg), or tetranectin N-terminal deletion mutant (ΔTN) (1.0 mg/kg) were administered intraperitoneally (i.p.) at the indicated time points, and survival rates were monitored. To elucidate P2-1’s protective mechanisms, a separate group of BALB/c mice (n = 4) underwent CLP and received P2-1 (1.0 mg/kg) at 2 h and 20 h post-CLP. At 24 h post-CLP, the animals were euthanized, blood was collected, and serum cytokines and chemokines were measured via murine cytokine antibody arrays as previously described. More details are presented in Additional file 1: Methods.
For these preclinical studies, animals were random ly assigned to experimental groups and treated with P2, P2-1, or a pCTS-L-neutralizing mAb2 according to the indicated dosing regimens. Outcomes, including septic survival rates, arthritis severity, pain sensitivity, and joint tissue histology scores, were collected under blinded experiment al conditions. The study d esign and sample si zes fo r each exp eriment are d etailed in the figure legends. No data, including outlier values, were excluded. For skewed data, outliers were defined via the interquartile range (IQR) method as any value below Q 1 –(1.5 × IQR) or above Q 3 + (1.5 × IQR). For normally distributed data, outliers were defined via the Z-score method as any value with an absolute Z-score greater than 2 or 3. The primary data are reported in Additional file 4. All the reagent sources are listed in Additional file 1: Table S1 .
Cecal ligation and puncture (CLP) sepsis model […]
screening. c Expression and purification of recombinant full-length human TN (residues 1 – 181) and its N-terminal deletion mutant ( ΔTN, residues 45 – 181). […] Recombinant Δ TN was given intraperitoneally at 24 h and 48 h post-C L P, and animal survival rates were monitored. *P < 0.0 5. […]

With `CCCC[C@H](NC(=O)[C@H](Cc1c[nH]cn1)NC(=O)[C@@H](NC(=O)[C@H](CCCCN)NC(=O)[C@@H](N)[C@@H](C)O)C(C)C)C(=O)N[C@@H](CCCCN)C(=O)N[C@@H](CO)C(=O)N[C@@H](Cc1ccccc1)C(=O)N[C@@H](CC(C)C)C(=O)N[C@@H](C)C(=O)N[C@@H](Cc1ccccc1)C(=O)N[C@@H](CCC(N)=O)C(=O)N[C@H](C(=O)N[C@@H](CCCCN)C(=O)N[C@H](C(=O)O)[C@@H](C)O)[C@@H](C)O` [P2-1] (HELM PEPTIDE1{T.K.V.H.[Nle].K.S.F.L.A.F.Q.T.K.T}$$$$V2.0; N-terminus and C-terminus assumed) as the compound, how does the “septic survival, in words” value (P2-1 0.1 mg/kg at 2, 20, 28, 44, and 52 h post-CLP) read?
Its value is “conferred significant protection against sepsis”.

And the “septic survival, in words” value (P2-1 1.0 mg/kg at 24 h and 48 h post-CLP)?
The value was “potent protection against lethal sepsis even with delayed therapeutic administration”.
